Assay results reported in patent publication US10626349B2, “Cleavable surfactants” (PROMEGA CORPORATION, priority 2007, dated 2020).
Entries after “also recorded” stand apart in the source; their conditions may differ. Each block holds one molecule with its values, some of them ahead of it.

Columns and labels:
[1] = Acid and thermal degradation of the surfactant; conditions: for time to degradation in 0.5% TFA: 0.1% solution for 3220 and 3266
[2] = target: Horse myoglobin digested with trypsin (Equus caballus, UniProt P68082); experiment: One hour digestion of myoglobin with trypsin (HPLC); format: biochemical; conditions: for digestion of myoglobin in one hour (in words): trypsin, 3116: 0.01%, 50:1, one hour at 37° C.
Sequence of Horse myoglobin digested with trypsin (P68082 2-154 limits assumed): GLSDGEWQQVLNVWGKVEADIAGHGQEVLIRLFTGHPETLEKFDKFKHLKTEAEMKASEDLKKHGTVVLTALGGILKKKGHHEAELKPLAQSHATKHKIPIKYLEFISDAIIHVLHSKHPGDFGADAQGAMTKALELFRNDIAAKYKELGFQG
Experimental: For example, digestion of myoglobin using standard protocol requires overnight digestion. […] Horse myoglobin was digested with trypsin at a 50:1 ratio for one hour at 37° C., alone and separately in the presence of 0.01% compound 3116.
The peaks in FIG. 3A and FIG. 3B indicate peptides or partial digestion fragments.

trypsin = trypsin (Sus scrofa, UniProt P00761); experiment: Trypsin activity measured as rate of BAEE cleavage; format: biochemical; conditions: standard digestion conditions
Sequence of trypsin (P00761 9-231): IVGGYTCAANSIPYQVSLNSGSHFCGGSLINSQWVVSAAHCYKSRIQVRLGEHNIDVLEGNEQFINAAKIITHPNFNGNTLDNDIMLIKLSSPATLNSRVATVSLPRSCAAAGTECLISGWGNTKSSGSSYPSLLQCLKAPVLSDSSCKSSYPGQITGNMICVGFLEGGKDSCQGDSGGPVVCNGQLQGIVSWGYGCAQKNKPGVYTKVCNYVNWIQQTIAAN
Text: Compound 3116 can be used as an acid-labile surfactant to facilitate the solubilization and denaturation of a protein or peptide. Compound 3116 stabilizes proteases and enhances the proteolysis activity of trypsin. See FIG. 2, which illustrates the effect of compound 3116 on trypsin activity.

[3] = target: T1, Bacteriorhodopsin digested with chymotrypsin (Halobacterium salinarum, UniProt P02945); experiment: Bacteriorhodopsin/Chymotrypsin digest, HPLC peak area versus RapiGest control; format: biochemical; conditions: 0.025% surfactant
T1 sequence (P02945 14-261 limits assumed): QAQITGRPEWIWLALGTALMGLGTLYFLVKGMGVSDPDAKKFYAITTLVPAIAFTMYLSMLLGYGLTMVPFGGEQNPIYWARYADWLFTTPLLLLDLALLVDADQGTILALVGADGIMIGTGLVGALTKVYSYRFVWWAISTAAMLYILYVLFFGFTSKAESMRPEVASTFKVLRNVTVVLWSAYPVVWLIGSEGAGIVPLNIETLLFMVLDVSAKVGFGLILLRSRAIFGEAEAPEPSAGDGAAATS
Experimental: Bacteriorhodopsin (25 μs) was heated with 0.025% Rapigest™ surfactant or the indicated compound of the invention for 5 minutes at 95° C., then digested with chymotrypsin (Sigma) at a 10:1 ratio in 125 μL 50 mM Ammonium bicarbonate for 1 hour at 37° C. After one hour TFA was added to 0.5-2% and the mixtures were incubated at 37° C. or 65° C. for 20 or 30 minutes. Degraded surfactant was removed by centrifugation at 14,000×g for 5 minutes. An aliquot of 50-100 μL of digested protein was analyzed by HPLC as described above.
Compound 3211, 3212, 3224 and Rapigest™ surfactant control for FIG. 13C reactions: Bacteriorhodopsin (25 μs) was solubilized with 0.025% compound of interest for 1-2 minutes at room temperature, then digested with chymotrypsin (Sigma) at a 10:1 ratio in 125 μL 50 mM Ammonium bicarbonate for 1 hour at 37° C. After one hour TFA was added to 0.5-2% and the mixtures were incubated at 37° C. or 65° C. for 20 or 30 minutes. Degraded surfactant was removed by centrifugation at 14,000×g for 5 minutes. An aliquot of 50-100 μL of digested protein was analyzed by HPLC as described above.
(§1) For each compound numbered below in Example 12, the rate of enhanced digestion was determined from the ratio of the surfactant peak area (surfactant # Pk. Area) to the Rapigest™ surfactant peak area (RG Pk area). Peak area was determined as the sum of all peaks integrated from 8-22 minutes.

[4] = Solubility of the surfactant; conditions: for solubility in aqueous solutions (concentration dissolved to): aqueous solution; for solubility (concentration dissolved to): in 50 mM ammonium bicarbonate
[5] = target: T2, Myoglobin from horse heart digested with trypsin (Equus caballus, UniProt P68082); experiment: Myoglobin/Trypsin digest, HPLC peak area versus RapiGest control; format: biochemical; conditions: 0.01% surfactant, trypsin 50:1, 20 minutes at 37° C.; ratio to RapiGest control, >1 = more digestion
T2 construct: Myoglobin from horse heart; from tissue; host or cells: horse heart
T2 sequence (P68082 2-154 limits assumed): as the sequence (P68082 2-154 limits assumed) above
Experimental: Myoglobin from horse heart (typically 25 μs) was digested with trypsin (Promega) at a 50:1 ratio in a volume of 125 μL (typical) of 50 mM Ammonium bicarbonate for 20 minutes at 37° C. with 0.01% RapiGest™ surfactant or 0.01% of the indicated compound of the invention (upper and lower chromatograms, respectively). TFA was added to 0.5-2% and the mixtures were incubated at 37° C. or 65° C. for 20 or 30 minutes. Degraded surfactant was removed by centrifugation at 14,000×g for 5 minutes. HPLC analysis was performed on a 25-50 μL reaction sample using an HP1050 LC system with an Agilent Sorbax SB-C18 column (3.0×100 mm, 3.5 micron) and a gradient of 0.1% TFA (97.5% initial) and Acetonitrile, 0.01% TFA (55% final condition followed by a 100% wash step) and a flow rate of 0.75 mL/min. Peptides were detected at 214 and 280 nm.
as §1

[6] = Stability and degradation profile of surfactant 3211 solutions; format: physicochemical
Experimental: FIG. 1 illustrates the degradation profile of a 0.025% solution of surfactant 3211 at 40° C., according to one embodiment.
For example, degradation of surfactant compound 3211 after protein digestion is not required because the surfactant degrades during the digestion process. The stability of a 1% solution of 3211 (10% degradation) is 8 hours at 23° C., 12 days at 4° C., and an estimated >3 years at −20° C. However, the degradation rate of surfactant 3211 increases in a typical protein digestion protocol. […] Less than about 5% of intact surfactant remains after only 2 hours.

[7] = target: T3, beta subunit of mouse ATP synthase (Mus musculus, UniProt P56480); experiment: In-gel trypsin digestion of 56 kD band of mouse heart membrane protein, mass spectrometry; format: biochemical
T3 construct: Total membrane protein from mouse heart was resolved in SDS-polyacrylamide gel; from tissue; host or cells: mouse heart, total membrane protein, 56 kD SDS-PAGE band
T3 sequence (P56480 47-529): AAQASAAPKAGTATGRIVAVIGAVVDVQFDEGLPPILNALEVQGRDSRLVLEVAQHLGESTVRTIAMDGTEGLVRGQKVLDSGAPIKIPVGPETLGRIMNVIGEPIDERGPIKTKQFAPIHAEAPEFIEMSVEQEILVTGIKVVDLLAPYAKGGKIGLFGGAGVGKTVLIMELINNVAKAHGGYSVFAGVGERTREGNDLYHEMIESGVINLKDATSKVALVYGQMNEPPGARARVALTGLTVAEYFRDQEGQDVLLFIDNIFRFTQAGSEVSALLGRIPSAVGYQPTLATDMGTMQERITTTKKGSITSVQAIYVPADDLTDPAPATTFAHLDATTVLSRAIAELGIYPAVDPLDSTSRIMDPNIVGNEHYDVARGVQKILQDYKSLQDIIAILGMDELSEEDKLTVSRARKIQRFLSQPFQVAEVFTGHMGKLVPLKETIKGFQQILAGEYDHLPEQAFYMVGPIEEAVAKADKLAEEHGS
Experimental: 13. Rehydrate for 5 minutes in 20 μL 12 ng/μL Trypsin Gold (in 0.025% surfactant A/50 mM […] AmBic). Overlay with 30 μL of 0.01% surfactant A/50 mM AmBic to cover gel pieces. Incubate 1 hour at 50° C.
Total membrane protein from mouse heart was resolved in SDS-polyacrylamide gel and a single protein band was digested with a conventional digestion protocol (control) and separately with a compound 3211-assisted protocol.
A band of the protein with an approximate MW of 56 kD was excised and digested with trypsin. The digested samples were analyzed by mass spectrometry. […] Asterisks indicate identified peptides for beta subunit of mouse ATP synthase (the major protein in 56 kD band).

[8] = Hydrolytic stability in 50 mM ammonium bicarbonate (reverse-phase HPLC); format: physicochemical; set-up: key: >>: compound 100% stable over course of experiment
Experimental: Hydrolytic stability was measured by monitoring the change in retention time of the intact surfactant by reverse-phase HPLC. The ½-life is defined as the time required to reach 50% degradation.

[9] = target: T1, Bacteriorhodopsin digested with chymotrypsin; experiment: Bacteriorhodopsin/Chymotrypsin digest, HPLC peak area versus RapiGest control; format: biochemical; conditions: at 0.1% surfactant, BR boiled with surfactant, chymotrypsin 10:1
[10] = target: T4, Ovalbumin (albumin from chicken egg white) treated with PNGase F (Gallus gallus, UniProt P01012); experiment: Deglycosylation of ovalbumin with PNGase F (SDS-PAGE); format: biochemical; conditions: 0.025% surfactant, 1 hour and 20 minutes at 37° C.
T4 construct: Ovalbumin (albumin from chicken egg white); purchased Sigma
T4 sequence (P01012 2-386 limits assumed): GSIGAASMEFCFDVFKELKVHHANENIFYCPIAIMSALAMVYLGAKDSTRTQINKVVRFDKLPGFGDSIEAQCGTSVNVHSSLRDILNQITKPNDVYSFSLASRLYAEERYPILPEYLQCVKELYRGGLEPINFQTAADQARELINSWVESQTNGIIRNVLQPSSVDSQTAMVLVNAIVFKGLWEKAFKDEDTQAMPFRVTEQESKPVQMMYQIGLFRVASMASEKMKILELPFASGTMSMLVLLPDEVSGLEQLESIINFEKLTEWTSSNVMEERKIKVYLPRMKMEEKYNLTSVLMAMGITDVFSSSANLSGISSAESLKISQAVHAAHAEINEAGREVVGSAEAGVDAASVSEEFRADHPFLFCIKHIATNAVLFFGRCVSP
Experimental: Surfactants described herein were evaluated as replacements for SDS in deglycolsylation protocols. Ovalbumin (albumin from chicken egg white) was selected as a model protein. Ovalbumin is a 44.3 kD glycoprotein with 1.4 kD carbohydrate units linked to the protein. […] Surfactant compound 3266 is acid-labile and it can be easily degraded, allowing for analysis of the protein and carbohydrate using mass spectrometric analysis.
Ovalbumin (Sigma) (45 μg) was dissolved in 0.025% 3266/5 mM DTT/25 mM ammonium bicarbonate (pH ˜8) and incubated at 95° C. for 5 minutes. In the control reaction, 3266 was replaced with SDS. Deglycosylation was initiated by adding 1.5μ units PNGase F (Sigma). After 1 hour and 20 minutes of incubation at 37° C., the reactions were terminated by incubation at 95° C. for 5 minutes and an aliquot from each reaction was resolved with SDS-PAGE. […] The analyses indicate that compound 3266 is equivalent to the deglycosylation enhancement found using SDS, while eliminating the deleterious effects of SDS in concomitant spectrometric and chromatographic analysis.

[11] = 1 hour in-gel digestion with surfactant
[12] = surfactant conc. 0.025% in 50 mM ammonium bicarbonate
[13] = surfactant conc. 1% in 50 mM ammonium bicarbonate

Structure (SMILES): CCCCCCCCCCCC(C)(C)OC(=O)NCCCS(=O)(=O)O [Compound 3116]
time to degradation of 0.01% solution ([1]; 0.01% solution, 37° C. where stated): ≤ 2 h
identifiable peaks in HPLC chromatogram of myoglobin digest ([2]; 0.01% 3116, trypsin 50:1, one hour at 37° C.): > 15
digestion of myoglobin in one hour (in words) [2]: largely digested within one hour
effect on trypsin activity (in words) (trypsin): stabilized trypsin activity
surfactant Pk area/RG Pk area, Bacteriorhodopsin/Chymotrypsin digest ([3]; BR heated (boiled) with surfactant 5 minutes at 95° C., chymotrypsin 10:1, 1 hour at 37° C., ratio to RapiGest control): 1.5
solubility in aqueous solutions (concentration dissolved to) [4]: ≥ 0.5%
surfactant Pk area/RG Pk area, Myoglobin/Trypsin digest [5]: 0.6

Structure (SMILES): CCCCCCCCCCC(OC(=O)NCCCS(=O)(=O)O)c1ccco1 (stereo not drawn) [Compound 3211]
time to degradation in 0.5% TFA ([1]; 37° C. where stated): 15 min
time to degradation by boiling without TFA ([1]; boiling without TFA): 5 min
degradation at room temperature (in words) ([1]; room temperature): degrades even at room temperature at a substantial rate
digestion of myoglobin in one hour (in words) [2]: complete digestion
surfactant Pk area/RG Pk area, Bacteriorhodopsin/Chymotrypsin digest ([3]; BR solubilized at room temperature (not boiled), RapiGest control boiled): 0.9
solubility (concentration dissolved to) [4]: 1%
surfactant Pk area/RG Pk area, Myoglobin/Trypsin digest [5]: 1.3
intact surfactant remaining ([6]; 0.025% solution at 40° C., after 2 hours): Less than 5%
stability of a 1% solution (10% degradation) ([6]; 1% solution, 4° C.): 12 days
stability of a 1% solution (10% degradation) ([6]; 1% solution, 23° C.): 0.33 days
stability of a 1% solution (10% degradation), estimated ([6]; 1% solution, −20° C.): > 3 years
increase in sequence coverage versus protocol without surfactant [7]: 50%
MASCOT score for beta subunit of ATP synthase [7, 11]: 920
sequence coverage for beta subunit of ATP synthase [7, 11]: 75%
½-life ([8]; 0.025%/20% AcN): 6 h
½-life ([8]; 0.025%/40% AcN): 52 h
½-life ([8]; 0.025%/60% AcN): >100 h
½-life ([8]; 0.025%/80% AcN): >>
½-life ([8]; 1%/50% AcN): >100 h
½-life ([8]; surfactant conc. 0.0025% in 50 mM ammonium bicarbonate): 0.5 h
½-life [8, 12]: 1.1 h
½-life ([8]; surfactant conc. 0.10% in 50 mM ammonium bicarbonate): 4.8 h
½-life [8, 13]: 21 h

Structure (SMILES): CCCCCCCCCCOc1ccc(C(OCCc2ccc(N(CCCCS(=O)(=O)[O-])CCCCS(=O)(=O)[O-])cc2)(c2ccccc2)c2ccccc2)cc1.[Na+].[Na+] [Compound 3214]
surfactant Pk area/RG Pk area, Bacteriorhodopsin/Chymotrypsin digest [9]: 0.6
solubility in aqueous solutions (concentration dissolved to) [4]: 1%

time to degradation in 0.5% TFA ([1]; 37° C. where stated): ≤ 30 min
thermolability (in words) ([1]; 3266: 5 minutes at 95° C.): not thermolabile
solubility (concentration dissolved to) [4]: 2%
surfactant Pk area/RG Pk area, Myoglobin/Trypsin digest [5]: 1.2
½-life [8, 12]: >>
½-life ([8]; surfactant conc. 0.25% in 50 mM ammonium bicarbonate): >>
½-life [8, 13]: >>
Structure (SMILES): CCCCCCCCCCCCC(OC(=O)NCCCS(=O)(=O)O)c1ccc(OC)c(OC)c1 (stereo not drawn) [Compound 3266]
deglycosylation of ovalbumin by PNGase F (in words) [10]: rapidly removed carbohydrate from ovalbumin; also recorded: transformed into a deglycosylated 42.9 kD form

Structure (SMILES): CCCCCCCCCCCCOS(=O)(=O)[O-].[Na+] [SDS, sodium dodecyl sulfate, reference compound]
deglycosylation of ovalbumin by PNGase F (in words) [10]: transformed into a deglycosylated 42.9 kD form
effect on trypsin activity (in words) (trypsin): inhibited trypsin activity within 30 minutes
